Tested on: in-vitro oral biofilms
Test: Effect of treatment with active agents on the composition of in-vitro oral biofilms (Calgary Biofilm Device, 16S rRNA pyrosequencing)
Format: cell-based, oral bacteria
From the text: An in-vitro oral biofilm model for oral care product evaluation has recently been developed using the commercially available Calgary Biofilm Device (CBD) (Ceri, Olson, Stremick, Read, Morck, Buret, J Clin Microbiol. (1999) June; 37(6):1771-6) seeded with a natural saliva inoculum (Kistler, Pesaro, Wade, BMC Microbiol. (2015) December; 15(1):364). The pegs of the CBD were coated in hydroxyapatite to provide a surface that was chemically similar to tooth enamel. […] In addition, the composition of the biofilms was reproducible when derived from saliva of the same individuals at different time points.
Approximately 5 ml of saliva was collected from each volunteer by expectoration into sterile universal tubes. The saliva samples were then pooled together in equal volumes. DNA was extracted from an aliquot of the pooled saliva and 200 μl was pipetted into each well of a microtitre plate, as required. The wells around the edge of the microplate were not used. The device lid, with 96 hydroxyapatite-coated pegs (to mimic teeth) was fitted so that the pegs were bathed in saliva. The CBD was then incubated for 18 hours at 37° C. in air+5% CO2 after which the lid was transferred to a new baseplate containing Brain Heart Infusion (BHI) broth (Fluka Analytical) supplemented with hog gastric mucin (1 g/L), haemin (10 mg/L), and vitamin K (0.5 mg/L). The growth medium was changed after every 3.5 days.
The active agents were prepared as follows: 5% or 7.5% stock solutions were made in absolute ethanol. The stock solutions were then diluted to working concentration in sterile PBS. Thymol was diluted down to a final concentration of 0.1% v/v and the composition according to the invention, comprising 95% carrier and 5% of the compound of formula A, was diluted to 0.15% v/v. The final test concentration of the compound of formula A was 0.0075 wt.-%.
At 7 days, biofilms were treated with the active agents or a negative PBS control. […]
The bacterial composition of the biofilms and saliva was determined using 454 pyrosequencing of partial 16S rRNA genes. […]

Cc1ccc(C(C)C)c(O)c1 [Thymol]
PCoA clustering of treated biofilms relative to negative control (community membership (Jaccard index) and structure (thetaYC)): did not cluster separately
Mean no. of OTUs (sd) (richness of the biofilm community, treated twice daily for seven days, thymol 0.1% v/v, composition 0.15% v/v, 10 replicates): 250.8
Effect on the composition of in-vitro biofilms (summary statement): did not have a significant effect
